Experiments:
Assay type in all cases: cell-based
HUVECs = experiment: Cord formation assay on Matrigel (angiogenesis); conditions: Homo sapiens, HUVEC
Protocol: 60 μl Matrigel® was added to a 96-well plate flat bottom plate (Costar 3096) and incubated for 30 minutes at 37° C. in a 5% CO2 atmosphere. A mixture of HUVECs and Tsuga extract, or a positive control (Fumagillin or GM6001) were added to each well. HUVECs were prepared as suspensions of 2.5×10^5 cells per ml in EGM-2, then 500 μl of HUVECs preparation was mixed with 500 μl of 2× of the desired dilution of Tsuga extract or control drug and 200 μl were added to each well. Four dilutions of each extract were tested in duplicate. After 18-24 hours at 37° C. in 5% CO2, the cells had migrated and organized into cords. The number of cell junctions was counted in 3 randomly selected fields and the inhibition of cord formation is calculated as follows: [(A−B)/A]×100, where A is the average number of cell junctions per field in the control well and B is the average number of cell junctions per field in the treated wells.

human skin fibroblasts = experiment: Inhibition of contractile force of fibroblasts in collagen I gel; conditions: Skin fibroblast, read-out: inhibition of tractional force of fibroblasts
Text: The skin model comprises human skin fibroblasts imbedded in a collagen I matrix and provides an in vitro representation of dermal contraction resulting from tractional forces generated by fibroblasts. Partial or permanent dermal contraction can play a role in the formation of wrinkles. Thus, extracts capable of inhibiting the contractile force of fibroblasts, have the potential to provide a dermo-decontraction anti-ageing effect in the skin.
The ability of the Tsuga extracts to inhibit the contractile force of fibroblasts was evaluated on human skin fibroblasts (Cascade Biologics, Portland, Oreg.). The cells were imbedded in a collagen I matrix to create a derm-like environment. Fibroblasts were grown in complete M106 to 80% confluence. Free-floating fibroblast-populated collagen gels were prepared in 24-well plates. 500 μl of gel contains 2.5 mg/ml of collagen I (rat tail, BD Biosciences, Bedford, Mass.), M106 5X, NaOH 0.7N; 1×10^5 cells and fetal bovine serum (FBS) at 20% (Wisent, St-Bruno, QC, Canada). The mix was kept on ice until distribution. The derm-like gels were allowed to polymerize for 1 hour at 37° C. in a humidified 5% CO2 atmosphere. After incubation, the gels were detached from the wells. […] Contraction was measured beginning at day 5. Contracting gels were digitally photographed and the gel areas were calculated using ImagePro software.

human skin keratinocytes [1] = experiment: IL-8 release from keratinocytes (irritation potential), ELISA; conditions: 5 μM; basal level 18 pg/ml
Protocol: This example provides results showing the non-irritating quality of the Tsuga extracts. The amount of interleukin-8 (IL-8) released in the following assay is used to quantify a possible irritating reaction after exposure of keratinocytes to the Tsuga extract.
Release of IL-8 was evaluated on human skin keratinocytes (Cascade Biologics, Portland, Oreg., catalog number C-005) and measured using the Quantikine hIL8 ELISA kit (R&D Systems, Minneapolis, Minn., catalog number D8000C). Keratinocytes were first grown in a 96-well plate using complete medium M154 (M154+HKGS cat S-001 from Cascade Biologics). This medium was used as a negative (non-irritating) control, while 2.5 μM phorbol 12-myristate 13-acetate (PMA) (Sigma-Aldrich Canada, Oakville, Ontario) was used as a positive (irritating) control. All extracts and controls were diluted in complete medium M154. Cells were seeded into 96-well plates at a concentration of 8×10^3 cells/well in complete M154 medium and plates were incubated for 48 hours at 37° C. in a humidified 5% CO2 atmosphere. The medium was removed and 200 μl of Tsuga extract or control were added to the wells (all performed in duplicate) and then the plates were incubated for 48 hours at 37° C. in a humidified 5% CO2 atmosphere. […] The absorbance was read at 450 nm on the Spectrafluor Plus plate reader (Tecan). […]

human skin keratinocytes [2] = experiment: UVA-induced IL-1 release in keratinocytes, ELISA; conditions: UVA 20 J/cm^2
Protocol: This example provides results showing the anti-inflammatory effect of Tsuga extracts when inflammation is induced in keratinocytes. The amount of interleukin-1 alpha (IL-1) released is used to quantify the inflammatory reaction after exposure of the keratinocytes to UVA light irradiation. IL-1 release was evaluated in human skin keratinocytes (Cascade Biologics, Portland, Oreg.) and was measured using the Quantikine hIL1 ELISA kit (R&D Systems, Minneapolis, Minn.). Keratinocytes were first grown in a 96-well plate using complete […] medium with different concentrations of extracts for 48 hours at 37° C. in a humidified 5% CO2 atmosphere. All extracts and controls were diluted in complete […] medium. Cells were rinsed with HBSS and irradiated with UVA at 20 J/cm^2. HBSS was removed and complete […] medium containing controls or extracts was added to respective wells. Plates were incubated for another 24 hours. ELISA was performed following the manufacturer's recommendations (R&D Systems). The absorbance was read at 450 nm on the Spectrafluor Plus plate reader (Tecan). […] The inhibition of IL-1 release is proportional to the anti-inflammatory effect.

## CNC(=O)[C@H](Cc1c[nH]c2ccccc12)NC(=O)[C@@H](CC(=O)NO)CC(C)C [GM6001]
HUVECs; 25 μM
  inhibition at 25 µM: 78%
Human skin fibroblasts
  inhibition at 50 µM: 85%

## CCCCCCCCCCCCCC(=O)O[C@@H]1[C@@H](C)[C@@]2(O)[C@@H](C=C(CO)C[C@]3(O)C(=O)C(C)=C[C@@H]23)[C@@H]2C(C)(C)[C@]12OC(C)=O [PMA, phorbol 12-myristate 13-acetate]
Human skin keratinocytes [1]
  IL-8 release: 282 pg/mL

## CO[C@@H]1[C@H](OC(=O)/C=C/C=C/C=C/C=C/C(=O)O)CC[C@]2(CO2)[C@H]1[C@@]1(C)O[C@@H]1CC=C(C)C [Fumagillin]
HUVECs; 15 μg/ml
  inhibition at 15 µg/mL: 100%

## O=C(O)c1ccccc1O [salicylic acid]
Human skin keratinocytes [2]; 0.025%
  inhibition of IL-1 release: 11%
Human skin keratinocytes [2]; 0.05%
  inhibition of IL-1 release: 27%

Source: patent US20110177014A1, “EXTRACTS FROM PLANTS OF THE TSUGA GENUS AND USES THEREOF IN THE TREATMENT OF INFLAMMATION, IRRITATION AND/OR INFECTION” (BIOPHARMACOPAE DESIGN INTERNATIONAL INC., priority 2008, published 2011)
